From patent EP4610269A1, “UROKINASE PLASMINOGEN ACTIVATOR SURFACE RECEPTOR (UPAR) LIGANDS FOR DIAGNOSTIC OR THERAPEUTIC USE” (3B Pharmaceuticals GmbH, priority 2024, dated 2025) come the findings set out here.

A word on the IC50: it is the point on the concentration scale where inhibition reaches its midpoint.

Like-named read-outs stand apart in the source and are kept apart here. Where a SMILES comes first, the peptide text is derived from it. Bridges are numbered along the chain shown (N, C = ends). [ ]: non-standard residue; d: D form. The star is where a group is joined. DOTA = O=C(O)CN1CCN(CC(=O)O)CCN(CC(=O)*)CCN(CC(=O)O)CC1; Phe(4-NO2) = N[C@@H](Cc1ccc([N+](=O)[O-])cc1)C(=O)O; Pro(cis-4-F) = O=C(O)[C@@H]1C[C@H](F)CN1; Hyp = O=C(O)[C@@H]1C[C@@H](O)CN1; αMeF = C[C@](N)(Cc1ccccc1)C(=O)O; NMeQ = CN[C@@H](CCC(N)=O)C(=O)O; Pentanoyl(4-Me) = CC(C)CCC(=O)*; Cit = NC(=O)NCCC[C@H](N)C(=O)O; Butoxycarbonyl = CCCCOC(=O)*; NMeV = CN[C@H](C(=O)O)C(C)C; Pip = O=C(O)[C@@H]1CCCCN1; Nle = CCCC[C@H](N)C(=O)O; Orn = NCCC[C@H](N)C(=O)O; Nva = CCC[C@H](N)C(=O)O; Pentanoyl = CCCCC(=O)*

For experiment [1], the target named is T1, human uPAR (uPAR-Fc) (Homo sapiens, UniProt Q03405).
T1 construct: comprising amino acids Leu23-Arg303 according to UniProt entry Q03405.1; purchased R&D Systems 10378-UK-100
T1 sequence (Q03405 23-303): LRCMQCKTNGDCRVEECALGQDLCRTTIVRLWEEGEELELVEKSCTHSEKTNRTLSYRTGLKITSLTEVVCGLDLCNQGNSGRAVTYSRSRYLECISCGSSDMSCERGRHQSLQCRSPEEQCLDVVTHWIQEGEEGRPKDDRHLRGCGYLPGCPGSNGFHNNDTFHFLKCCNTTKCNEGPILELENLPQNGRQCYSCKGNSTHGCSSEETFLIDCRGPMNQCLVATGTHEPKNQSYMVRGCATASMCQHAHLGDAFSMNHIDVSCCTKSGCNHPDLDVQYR
In words: Surface plasmon resonance (SPR) assay, single cycle kinetics. Type of experiment: binding. Conditions: pKD category for uPAR SPR activity assay, uPAR-Fc on Protein A-Chip, 25°C; for Kd: read-out: pKD CAT (converted). The protocol: Surface plasmon resonance (SPR) is an optical technique used to measure molecular interactions in real time. SPR occur when plane-polarized light hits a metal film under total internal reflection conditions. SPR signal is directly dependent on the refractive index of the medium on the sensor chip. In an SPR experiment, one molecule (i.e. uPAR) is immobilized on a sensor chip and binding to a second molecule (i.e. test compounds) is measured under flow. The binding of the compound on the surface changes the refractive index. In responses the reflection angle changes as compounds bind and dissociate on the immobilized protein on the surface. This response is measured in resonance units (RU). The RUs are proportional to the number of molecules bound to the surface. […] Kinetic binding constants and equilibrium binding constants can be derived from the sensorgrams.
Surface plasmon resonance (SPR) studies were performed using a Biacore™ T200 or S200 SPR system (Cytiva, formerly GE Life Sciences) to assess binding of compounds to recombinant uPAR protein.
In this example recombinant protein comprising the extracellular domains of human uPAR (uPAR-Fc, R&D Systems, CAT 10378-UK-100, comprising amino acids Leu23-Arg303 according to UniProt entry Q03405.1 and Fc region of human IgG1 at the C-terminus) was immobilized on a Protein A-Chip (Cytiva, CAT 29127555) according to the supplier's instructions. uPAR-Fc was diluted in Running Buffer (10 mM HEPES, 150 mM NaCl, 50 µM EDTA, 0.1% DMSO, 0.05% Tween-20, pH 7.4) to a final concentration of 100 nM and then flushed over the Protein A-Chip to immobilized ~2000 RUs.
Stock solutions of test compounds were prepared by dissolving each compound in DMSO. DMSO stock solution were diluted 1: 1000 in Running Buffer without DMSO. Further sequential dilutions were made with Running Buffer containing 0.1% DMSO. SPR binding analyses were performed in Single Cycle Kinetic (SCK) mode at 25°C. Flow cell without immobilized uPAR-Fc served as reference flow cell. The chip was regenerated with 10 mM Glycine, pH 1,5 to remove the uPAR-Fc from the chip surface after each SCK run. After every three SCK measurements, a blank run with Running Buffer instead of test compound was included to correct for baseline drifts (double reference substraction method). Table 11: SPR protocol steps for SCK with uPAR-Fc immobilized on a Protein A-Chip.
For each test compound, SPR raw data sensorgrams were recorded using the Biacore™ T200 or S200 control software. Sensorgrams were processed and analyzed with the Biacore™ Insight Evaluation software. […] The reference subtracted sensorgram for each test compound was further corrected for baseline drift by subtracting the sensorgram of a reference subtracted blank run (Running Buffer only). The dissociation constant (KD) was calculated from the double reference subtracted sensorgrams using the 1:1 Langmuir binding model. The pKD value (negative decadic logarithm of dissociation constant) was calculated using Microsoft Excel.
On the technique in general: Surface plasmon resonance follows binding to a sensor surface in real time, without labels.

Experiment [2] addresses T2, uPAR-expressing HEC-265 human endometrial adenocarcinoma cells (Homo sapiens, UniProt Q03405).
T2 construct: Cell surface uPAR-expressing HEC-265 human endometrial adenocarcinoma cells; host or cells: HEC-265
Kind of experiment: Competitive FACS binding assay. Conditions: pIC50 category of FACS binding. As to the method: In order to determine binding of compounds according to the present invention to uPAR-expressing cells, a competitive FACS binding assay was established.
Cell surface uPAR-expressing HEC-265 human endometrial adenocarcinoma cells (Japanese Collection of Research Bioresources, #JCRB1142) were cultured in MEM Eagle with stable glutamine (Pan Biotech, #P04-09500) including 15% fetal bovine serum (Pan Biotech, #P30-3306) and 100 U/ml penicillin and 100 µg/mL streptomycin (Pan Biotech, #P06-07100). Cells were detached with Cell Dissociation Buffer (Thermo Scientific, #13151014) and washed in FACS buffer (PBS (Pan Biotech, #P04-36500) including 1% BSA (SeraCare, #AP-4510-80). Cells were diluted in FACS buffer to a final concentration of 500.000 cells per ml and 200 µl of the cell suspension are transferred to a u-shaped non-binding 96-well plate (Greiner Bio-One, #650901).
For IC50 determination, cells were incubated with 10 nM Bio--Ttds--Ttds--Ttds--Ttds-D-Cha-FsrYLWS-NH2) in the presence of increasing concentrations of non-labeled test compounds at 4°C for 1 hour. Cells were washed twice in FACS buffer. An additional incubation step with 1 µg/mL APC-Streptavidin (Miltenyi; #130-106-791) in 50 µL FACS buffer for 30 minutes on ice was performed followed by two washes with FACS buffer. Cells were resuspended in 200 µl FACS buffer and analyzed in an Attune NxT flow cytometer. Median fluorescence intensities (APC channel) were calculated by Attune NxT software and plotted against peptide concentrations. Four parameter logistic (4PL) curve fitting and pIC50 calculations were performed using ActivityBase software.
In general terms: A flow cytometer gives signals particle by particle.

T2 sequence (Q03405 23-335): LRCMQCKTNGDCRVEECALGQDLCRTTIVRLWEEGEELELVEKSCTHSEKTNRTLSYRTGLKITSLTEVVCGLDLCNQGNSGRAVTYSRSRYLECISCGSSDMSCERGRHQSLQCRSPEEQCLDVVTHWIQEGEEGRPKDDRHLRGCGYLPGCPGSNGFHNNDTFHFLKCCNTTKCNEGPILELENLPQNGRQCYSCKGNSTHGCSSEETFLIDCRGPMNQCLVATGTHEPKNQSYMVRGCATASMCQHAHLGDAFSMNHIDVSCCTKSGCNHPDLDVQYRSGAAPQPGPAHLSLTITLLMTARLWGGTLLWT

Turning to `CCCC[C@@H]1NC(=O)[C@H](CCCNC(=N)N)NC(=O)[C@@H](NC(=O)[C@H](CC(C)C)NC(=O)[C@H](CC(=O)O)NC(C)=O)CSSC[C@@H](C(N)=O)NC(=O)[C@H](CC(C)C)NC(=O)[C@H]([C@@H](C)CC)NC(=O)[C@H](C)NC(=O)[C@@H]2CCCN2C(=O)[C@@H](Cc2ccccc2)NC(=O)[C@H](Cc2ccc(O)cc2)NC1=O` [UPAR-230, Ac-Asp-Leu-[Cys-Arg-Nle-Tyr-phe-Pro-Ala-Ile-Leu-Cys]-NH2] (Ac-DLCR[Nle]Y[dF]PAILC-NH2; disulfide 3-12), the Kd in experiment [1] is more than 100 nM. Moreover, the IC50 in experiment [2] was not below 126 nM.
Regarding “Butoc-[Cys-Cit-Lys(LuDOTA)-Tyr-Pcf-4Cfp-Hyp-Ile-Nva-Cys]-NH2 [UPAR-369]”, the “pKD CAT” value in experiment [1] (single cycle kinetics) is reported as “A (pKD values ≥ 8.8)”. In experiment [2], the “pIC50 CAT” value is given as “A (pIC50 values ≥8.0)”.
Take `CCCCC(=O)N[C@H]1CSSC[C@@H](C(N)=O)NC(=O)[C@H](CCC)NC(=O)[C@H]([C@@H](C)CC)NC(=O)[C@@H]2C[C@@H](O)CN2C(=O)[C@@H]2CCCN2C(=O)[C@H](Cc2ccccc2)NC(=O)[C@H](Cc2ccc([N+](=O)[O-])cc2)NC(=O)[C@H](CCCCNC(=O)CN2CCN(CC(=O)O)CCN(CC(=O)O)CCN(CC(=O)O)CC2)NC(=O)[C@H](CCCNC(N)=O)NC1=O` [UPAR-257, Pent-[Cys-Cit-Lys(DOTA)-Nif-Phe-Pro-Hyp-Ile-Nva-Cys]-NH2] (Pentanoyl-C[Cit]K(DOTA)[Phe(4-NO2)]FP[Hyp]I[Nva]C-NH2; disulfide 1-10): the Kd in experiment [1] was less than 1.58 nM. Also, the IC50 in experiment [2] was not above 10 nM.
As for `CC[C@H](C)[C@@H]1NC(=O)[C@@H]2CCCCN2C(=O)[C@@H]2CCCN2C(=O)[C@H](Cc2ccccc2)NC(=O)[C@H](Cc2ccc(O)cc2)NC(=O)[C@H](CCC(N)=O)NC(=O)[C@H](CCCNC(N)=O)NC(=O)[C@@H](NC(=O)CCC(C)C)CSSC[C@@H](C(N)=O)NC(=O)[C@H](CC(C)C)NC1=O` [UPAR-469, iHex-[Cys-Cit-Gln-Tyr-Phe-Pro-Pip-Ile-Leu-Cys]-NH2] ({Pentanoyl(4-Me)}-C[Cit]QYFP[Pip]ILC-NH2; disulfide 1-10), the Kd in experiment [1] (single cycle kinetics) was 1.58 to 10 nM. The half-maximal inhibitory concentration (IC50) in experiment [2] was 12.6 to 31.6 nM.
For `CCCCC(=O)N[C@H]1CSSC[C@@H](C(N)=O)NC(=O)[C@H](CCC)NC(=O)[C@H]([C@@H](C)CC)NC(=O)[C@@H]2C[C@@H](O)CN2C(=O)[C@H](C(C)C)N(C)C(=O)[C@H](Cc2ccccc2)NC(=O)[C@H](Cc2ccc(O)cc2)NC(=O)[C@H](CCC(N)=O)NC(=O)[C@H](CCCNC(=N)N)NC1=O` [UPAR-470, Pent-[Cys-Arg-Gln-Tyr-Phe-Nmv-Hyp-Ile-Nva-Cys]-NH2] (Pentanoyl-CRQYF[NMeV][Hyp]I[Nva]C-NH2; disulfide 1-10), in that order: more than 100 nM and not below 126 nM.
As to `CC[C@H](C)[C@@H]1NC(=O)[C@@H](C)NC(=O)[C@@H]2CCCN2C(=O)[C@H](Cc2ccccc2)NC(=O)[C@H](Cc2ccc(O)cc2)NC(=O)[C@H](CCCCNC(=O)CN2CCN(CC(=O)O)CCN(CC(=O)O)CCN(CC(=O)O)CC2)NC(=O)[C@H](CCCNC(N)=O)NC(=O)[C@@H](NC(=O)CCC(C)C)CSSC[C@@H](C(N)=O)NC(=O)[C@H](CC(C)C)NC1=O` [UPAR-256, iHex-[Cys-Cit-Lys(DOTA)-Tyr-Phe-Pro-ala-Ile-Leu-Cys]-NH2] ({Pentanoyl(4-Me)}-C[Cit]K(DOTA)YFP[dA]ILC-NH2; disulfide 1-10), in experiment [1], the Kd is less than 1.58 nM. Besides, the IC50 in experiment [2] was not above 10 nM.
Taken in the same sequence, the figures for `CCCCOC(=O)N[C@H]1CSSC[C@@H](C(N)=O)NC(=O)[C@H](CCC)NC(=O)[C@H]([C@@H](C)CC)NC(=O)[C@@H]2C[C@@H](O)CN2C(=O)[C@@H]2C[C@H](F)CN2C(=O)[C@H](Cc2ccccc2)NC(=O)[C@H](Cc2ccc(O)cc2)NC(=O)[C@H](CCCNC(=O)CN2CCN(CC(=O)O)CCN(CC(=O)O)CCN(CC(=O)O)CC2)NC(=O)[C@H]([C@@H](C)O)NC1=O` [UPAR-192, Butoc-[Cys-Thr-Orn(DOTA)-Tyr-Phe-4Cfp-Hyp-Ile-Nva-Cys]-NH2] (Butoxycarbonyl-CT[Orn](DOTA)YF[Pro(cis-4-F)][Hyp]I[Nva]C-NH2; disulfide 1-10) were less than 1.58 nM and not above 10 nM.
Consider `CCCCOC(=O)N[C@H]1CSSC[C@@H](C(N)=O)NC(=O)[C@H](CCC)NC(=O)[C@H]([C@@H](C)CC)NC(=O)[C@@H]2C[C@@H](O)CN2C(=O)[C@@H]2C[C@H](F)CN2C(=O)[C@H](Cc2ccccc2)NC(=O)[C@H](Cc2ccc(O)cc2)NC(=O)[C@H](CCC(N)=O)NC(=O)[C@H]([C@@H](C)O)NC1=O` [UPAR-358, Butoc-[Cys-Thr-Gln-Tyr-Phe-4Cfp-Hyp-Ile-Nva-Cys]-NH2] (Butoxycarbonyl-CTQYF[Pro(cis-4-F)][Hyp]I[Nva]C-NH2; disulfide 1-10), for which the Kd in experiment [1] (single cycle kinetics) was less than 1.58 nM. This compound gave an IC50 in experiment [2] not above 10 nM.
For `CCCCC(=O)N[C@H]1CSSC[C@@H](C(N)=O)NC(=O)[C@H](CCC)NC(=O)[C@H]([C@@H](C)CC)NC(=O)[C@@H]2C[C@@H](O)CN2C(=O)[C@@H]2CCCN2C(=O)[C@](C)(Cc2ccccc2)NC(=O)[C@H](Cc2ccc(O)cc2)NC(=O)[C@H](CCCCNC(=O)CN2CCN(CC(=O)O)CCN(CC(=O)O)CCN(CC(=O)O)CC2)NC(=O)[C@H](CCCNC(N)=O)NC1=O` [UPAR-416, Pent-[Cys-Cit-Lys(DOTA)-Tyr-Amf-Pro-Hyp-Ile-Nva-Cys]-NH2] (Pentanoyl-C[Cit]K(DOTA)Y[αMeF]P[Hyp]I[Nva]C-NH2; disulfide 1-10), in that order: more than 100 nM and not below 126 nM.
Turning to `CC[C@H](C)[C@@H]1NC(=O)[C@@H](C)NC(=O)[C@@H]2CCCN2C(=O)[C@H](Cc2ccccc2)NC(=O)[C@H](Cc2ccc(O)cc2)NC(=O)[C@H](CCC(N)=O)N(C)C(=O)[C@H](CCCNC(N)=O)NC(=O)[C@@H](NC(=O)CCC(C)C)CSSC[C@@H](C(N)=O)NC(=O)[C@H](CC(C)C)NC1=O` [UPAR-407, iHex-[Cys-Cit-Nmq-Tyr-Phe-Pro-ala-Ile-Leu-Cys]-NH2] ({Pentanoyl(4-Me)}-C[Cit][NMeQ]YFP[dA]ILC-NH2; disulfide 1-10), the Kd in experiment [1] (single cycle kinetics) is 10 to 100 nM. Also, the half-maximal inhibitory concentration (IC50) in experiment [2] was not below 126 nM.
`CCCCC(=O)N[C@H]1CSSC[C@@H](C(N)=O)NC(=O)[C@H](CCC)NC(=O)[C@H]([C@@H](C)CC)NC(=O)[C@@H]2C[C@@H](O)CN2C(=O)[C@@H]2CCCN2C(=O)[C@H](CC(C)C)NC(=O)[C@H](Cc2ccc(O)cc2)NC(=O)[C@H](CCC(N)=O)NC(=O)[C@H](CCCNC(=N)N)NC1=O` [UPAR-197, Pent-[Cys-Arg-Gln-Tyr-Leu-Pro-Hyp-Ile-Nva-Cys]-NH2] (Pentanoyl-CRQYLP[Hyp]I[Nva]C-NH2; disulfide 1-10): the Kd in experiment [1] was 1.58 to 10 nM. In addition, in experiment [2], the IC50 is 12.6 to 31.6 nM.
